Results as given in patent publication US11999957B2, “Method for enhancing vanillin resistance of Saccharomyces cerevisiae by knocking out SNG1 gene” (QILU UNIVERSITY OF TECHNOLOGY, priority 2020, dated 2024).

Key:
sng1Δ mutant [1] = test: Shake-flask fermentation under vanillin stress (OD600 growth); format: cell-based, Saccharomyces cerevisiae
Protocol: (§1) A single colony of the sng1Δ mutant was picked, transferred to 1-2 mL of a SC medium and cultured at 30° C. and 200 rpm for about 24 h. The cell suspension was transferred to 20 mL of fresh medium at an initial OD600 of 0.2 and cultured at 30° C. and 200 rpm overnight to the mid log phase for secondary activation. Then the cell culture, at an initial OD600 of 0.2, was transferred to 40 mL of a SC medium containing 6 mmol/L of vanillin and cultured at 30° C. and 200 rpm under shaking, where the OD600 was regularly measured.
(§2) The maximum specific growth rate was obtained by calculating a […] regression slope of ln(OD600) versus time in the logarithmic growth phase.

wild-type BY4741 strain = test: as above; format: cell-based, Saccharomyces cerevisiae; conditions: wild-type BY4741, SC medium containing 6 mmol/L of vanillin, 30° C., 200 rpm
Protocol: as §1, §2
Similarly, the specific consumption rate of vanillin in the wild-type BY4741 strain was calculated to be 0.035 g g^−1 h^−1 according to the above method (FIG. 4).

sng1Δ mutant [2] = test: Growth on YEPD plate containing vanillin (spot dilution test); format: cell-based, Saccharomyces cerevisiae; conditions: YEPD plate with 6 mmol/L of vanillin, 30° C., 1-3 days, sng1Δ mutant vs control strain
Protocol: The sng1Δ mutant obtained above was cultured on a YEPD plate containing 6 mmol/L of vanillin to observe its growth status. Specifically, the sng1Δ mutant was inoculated to 1-2 mL of a liquid YEPD medium and cultured at 30° C. overnight to logarithmic growth phase. Then the mutant cells were transferred to 5 mL of fresh medium at an initial OD600 of 0.2, cultured overnight and centrifuged. The cells were collected, washed with 1 mL of sterile water three times and centrifuged at 8,000 r/min. The cells were again suspended with sterile water and placed at 30° C. for 9 h to prepare resting cells, and during the preparation, the medium was prepared, poured to a plate and naturally dried. The cell suspension was adjusted to OD600 of 1.0 and subjected to 10-fold serial dilution, and 4 μL of the suspension at each dilution was dropped on the plate, cultured at 30° C. for 1-3 days and photographed to observe the colony growth. The control strain was tested in the same way for the vanillin resistance.

Saccharomyces cerevisiae = conditions: 0.9 g/L vanillin; extended from 2 hours without vanillin; cited from earlier work

With `COc1cc(C=O)ccc1O` [vanillin] the “maximum specific growth rate” value (sng1Δ mutant [1]; sng1Δ mutant, SC medium containing 6 mmol/L of vanillin, aerobic, shaking, 30° C., 200 rpm) was 0.225 h⁻¹, the “improvement of maximum specific growth rate of sng1Δ mutant compared to the control strain” value (sng1Δ mutant [1]; under vanillin stress (6 mmol/L), sng1Δ mutant vs BY4741) was 70% and the “maximum specific growth rate” value (wild-type BY4741 strain) was 0.132 h⁻¹. For the same compound, the “growth status on plate under vanillin stress” value (sng1Δ mutant [2]) was “superior growth status to the control strain” and the “delay period (lag) of growth” value (Saccharomyces cerevisiae) was “about 24 hours”.
